Assay results as given in patent publication US8252837B2 (TMRC Co., Ltd., priority 2007, dated 2012).

Experiments:
[1] = system: IL-6 dependent RARα(+) human multiple myeloma cells U266; settings: SCID mice, oral 10 mg/kg/day for 28 consecutive days, FIG. 2
[2] = Oil component (base) solubility test; type: physicochemical; settings: in propylene glycol fatty acid ester
Experimental: Oil Component (Base) Solubility Test
(75% humidity), and at 60° C.

Row | SMILES | growth of U266 cells (volume of tumor) [1] | solubility and stability in the dissolved solution [2]
1 | CC1=C(/C=C/C(C)=C/C=C/C(C)=C/C(=O)O)C(C)(C)CCC1 [ATRA, all-trans retinoic acid] | inhibited the growth | –
2 | CC1(C)CCC(C)(C)c2cc(NC(=O)c3ccc(C(=O)O)cc3)ccc21 [Tamibarotene, 4-[(5,6,7,8-tetrahydro-5,5,8,8-tetramethyl-2-naphthalenyl)carbamoyl]benzoic acid] | – | optimum
